In PubChem BioAssay AID248 (DTP/NCI, 2004):
Where “and” joins values, the source holds several entries; their conditions need not be identical. Equal values may be shown once. Inconclusive results and toxic doses are left out.

Tested on: L1210 leukemia ip in BDF1 mice, survival T/C
Experiment: NCI In Vivo Anticancer Drug Screen. Data for tumor model L1210 Leukemia (intraperitoneal) in B6D2F1 (BDF1) mice
Settings: endpoint: mean survival time, higher = longer survival
In short: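 Survival endpoint. Drug-treated group vs vehicle group, expressed as T divided by C. Tumor passaged by transplantation.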

[1] = dose: 100.0 mg/kg/injection, schedule: Q01DX009 (ip), vehicle: saline with Tween-80
[2] = dose: 100.0 mg/kg/injection, schedule: Q04DX003 (ip), vehicle: saline with Tween-80
[3] = dose: 200.0 mg/kg/injection, schedule: Q01DX009 (ip), vehicle: saline with Tween-80
[4] = dose: 200.0 mg/kg/injection, schedule: Q04DX003 (ip), vehicle: saline with Tween-80
[5] = dose: 400.0 mg/kg/injection, schedule: Q01DX009 (ip), vehicle: saline with Tween-80
[6] = dose: 25.0 mg/kg/injection, schedule: Q01DX009 (ip), vehicle: saline
[7] = dose: 50.0 mg/kg/injection, schedule: Q01DX009 (ip), vehicle: saline
[8] = dose: 100.0 mg/kg/injection, schedule: Q01DX009 (ip), vehicle: saline
[9] = dose: 400.0 mg/kg/injection, schedule: Q01DX001 (ip), vehicle: carboxymethylcellulose (CMC)
[10] = dose: 100.0 mg/kg/injection, schedule: Q01DX001 (ip), vehicle: saline
[11] = dose: 200.0 mg/kg/injection, schedule: Q01DX001 (ip), vehicle: saline
[12] = dose: 400.0 mg/kg/injection, schedule: Q01DX001 (ip), vehicle: saline
[13] = dose: 200.0 mg/kg/injection, schedule: Q01DX009 (ip), vehicle: saline
[14] = dose: 100.0 mg/kg/injection, schedule: Q04DX003 (ip), vehicle: acetone

For `CCCCCCCCCCCC(=O)Nc1ccc2ccccc2c1`, the T/C [1] was 93 % of control and 97 % of control, the T/C (dose: 100.0 mg/kg/injection, schedule: Q04DX002 (ip), vehicle: saline with Tween-80) was 105 % of control and 107 % of control and the T/C [2] was 105 % of control. For the same compound, the T/C [3] was 107 % of control and 88 % of control, the T/C (dose: 200.0 mg/kg/injection, schedule: Q04DX002 (ip), vehicle: saline with Tween-80) was 93 % of control and 89 % of control and the T/C [4] was 94 % of control. For the same compound, the T/C [5] was 96 % of control and 90 % of control, the T/C (dose: 400.0 mg/kg/injection, schedule: Q04DX002 (ip), vehicle: saline with Tween-80) was 94 % of control and 117 % of control and the T/C (dose: 400.0 mg/kg/injection, schedule: Q04DX003 (ip), vehicle: saline with Tween-80) was 95 % of control.
For `O=NN(CCCl)C(=O)Nc1ccc(SCC(=O)O)cc1`, the T/C (dose: 5.0 mg/kg/injection, schedule: Q01DX001 (ip), vehicle: carboxymethylcellulose (CMC)) was 117 % of control, the T/C (dose: 18.0 mg/kg/injection, schedule: Q01DX001 (ip), vehicle: carboxymethylcellulose (CMC)) was 161 % of control and the T/C (dose: 26.0 mg/kg/injection, schedule: Q01DX001 (ip), vehicle: carboxymethylcellulose (CMC)) was 175 % of control.
In the case of `C[n+]1ccn(CC(=O)c2ccccc2)c1`, the T/C [6] is reported as 98 % of control, the T/C [7] is reported as 112 % of control and the T/C [8] is reported as 93 % of control.
`Nc1nc(N)c(-c2ccc(Cl)c(Cl)c2)c(CCc2ccc(NS(=O)(=O)c3cccc(S(=O)(=O)F)c3)cc2)n1` was tested, and the T/C (dose: 100.0 mg/kg/injection, schedule: Q01DX001 (ip), vehicle: saline with Tween-80) was 98 % of control, the T/C (dose: 200.0 mg/kg/injection, schedule: Q01DX001 (ip), vehicle: saline with Tween-80) was 95 % of control and the T/C (dose: 400.0 mg/kg/injection, schedule: Q01DX001 (ip), vehicle: saline with Tween-80) was 87 % of control.
`CCOC(=O)C1(c2ccccc2)CCN(CCC(=O)c2ccc(F)cc2)CC1` was tested, and the T/C (dose: 100.0 mg/kg/injection, schedule: Q01DX001 (ip), vehicle: Klucel (hydroxypropylcellulose) (HPC)) was 98 % of control and the T/C (dose: 200.0 mg/kg/injection, schedule: Q01DX001 (ip), vehicle: Klucel (hydroxypropylcellulose) (HPC)) was 95 % of control.
In the case of `C=C(C)C(=O)OCC1CO1` (configuration not stated), the T/C (dose: 50.0 mg/kg/injection, schedule: Q01DX Z (ip), vehicle: other) is reported as 90 % of control, the T/C (dose: 100.0 mg/kg/injection, schedule: Q01DX Z (ip), vehicle: other) is reported as 95 % of control and the T/C (dose: 200.0 mg/kg/injection, schedule: Q01DX Z (ip), vehicle: other) is reported as 107 % of control.
In the case of `O=C(c1cccs1)c1c(C(F)(F)F)oc2c(c1=O)C=CC2`, the T/C (dose: 100.0 mg/kg/injection, schedule: Q01DX001 (ip), vehicle: carboxymethylcellulose (CMC)) is reported as 100 % of control, the T/C (dose: 200.0 mg/kg/injection, schedule: Q01DX001 (ip), vehicle: carboxymethylcellulose (CMC)) is reported as 87 % of control and the T/C [9] is reported as 89 % of control.
For `O=NN(CCCl)C(=O)Nc1ccc(CCO)cc1`, the T/C (dose: 0.25 mg/kg/injection, schedule: Q01DX009 (ip), vehicle: saline) was 112 % of control, the T/C (dose: 0.38 mg/kg/injection, schedule: Q01DX009 (ip), vehicle: saline) was 114 % of control and the T/C (dose: 0.59 mg/kg/injection, schedule: Q01DX009 (ip), vehicle: saline) was 164 % of control. For the same compound, the T/C (dose: 0.89 mg/kg/injection, schedule: Q01DX009 (ip), vehicle: saline) was 205 % of control, the T/C (dose: 7.0 mg/kg/injection, schedule: Q01DX009 (ip), vehicle: saline) was 202 % of control and the T/C (dose: 10.0 mg/kg/injection, schedule: Q01DX009 (ip), vehicle: saline) was 109 % of control. For the same compound, the T/C (dose: 78.0 mg/kg/injection, schedule: Q01DX001 (ip), vehicle: other) was 185 % of control, the T/C (dose: 119.0 mg/kg/injection, schedule: Q01DX001 (ip), vehicle: other) was 201 % of control and the T/C (dose: 178.0 mg/kg/injection, schedule: Q01DX001 (ip), vehicle: carboxymethylcellulose (CMC)) was 242 % of control. The T/C (dose: 178.0 mg/kg/injection, schedule: Q01DX001 (ip), vehicle: other) was 160 % of control and 235 % of control, the T/C (dose: 266.0 mg/kg/injection, schedule: Q01DX001 (ip), vehicle: carboxymethylcellulose (CMC)) was 226 % of control and the T/C (dose: 266.0 mg/kg/injection, schedule: Q01DX001 (ip), vehicle: other) was 193 % of control. The T/C [9] was 276 % of control, the T/C (dose: 400.0 mg/kg/injection, schedule: Q01DX001 (ip), vehicle: other) was 182 % of control and the T/C (dose: 600.0 mg/kg/injection, schedule: Q01DX001 (ip), vehicle: carboxymethylcellulose (CMC)) was 244 % of control.
`Nc1nc(N)c(N=Nc2ccc([As](=O)(O)O)c(O)c2)c(=O)[nH]1` was tested, and the T/C [10] was 91 % of control, the T/C [11] was 93 % of control and the T/C [12] was 93 % of control.
With `CCN(CC)CC(C)OC(=O)CCN1CC1` (configuration not stated) the T/C (dose: 3.0 mg/kg/injection, schedule: Q01DX009 (ip), vehicle: saline) was 100 % of control, the T/C (dose: 6.0 mg/kg/injection, schedule: Q01DX009 (ip), vehicle: saline) was 106 % of control and the T/C (dose: 12.0 mg/kg/injection, schedule: Q01DX009 (ip), vehicle: saline) was 103 % of control. For the same compound, the T/C [6] was 101 % of control, the T/C (dose: 25.0 mg/kg/injection, schedule: Q04DX003 (ip), vehicle: saline) was 108 % of control and the T/C [7] was 95 % of control. For the same compound, the T/C (dose: 50.0 mg/kg/injection, schedule: Q04DX003 (ip), vehicle: saline) was 101 % of control, the T/C (dose: 100.0 mg/kg/injection, schedule: Q04DX003 (ip), vehicle: saline) was 97 % of control and 111 % of control and the T/C (dose: 200.0 mg/kg/injection, schedule: Q04DX003 (ip), vehicle: saline) was 103 % of control.
With `Oc1cc(O)cc(O)c1` the T/C [8] was 96 % of control, the T/C (dose: 100.0 mg/kg/injection, schedule: Q04DX002 (ip), vehicle: saline) was 115 % of control and the T/C [13] was 100 % of control. For the same compound, the T/C (dose: 200.0 mg/kg/injection, schedule: Q04DX002 (ip), vehicle: saline) was 104 % of control, the T/C (dose: 400.0 mg/kg/injection, schedule: Q01DX009 (ip), vehicle: saline) was 100 % of control and the T/C (dose: 400.0 mg/kg/injection, schedule: Q04DX002 (ip), vehicle: saline) was 100 % of control.
In the case of `C=CCNC(=O)CS(=O)(=O)NCC=C`, the T/C (dose: 100.0 mg/kg/injection, schedule: Q04DX003 (ip), vehicle: carboxymethylcellulose (CMC)) is reported as 95 % of control, the T/C (dose: 200.0 mg/kg/injection, schedule: Q04DX003 (ip), vehicle: carboxymethylcellulose (CMC)) is reported as 96 % of control and the T/C (dose: 400.0 mg/kg/injection, schedule: Q04DX003 (ip), vehicle: carboxymethylcellulose (CMC)) is reported as 117 % of control.
In the case of `CCCCCC(=O)Nc1cccc(OC(=O)NC)c1`, the T/C [1] is reported as 98 % of control, the T/C [3] is reported as 97 % of control and the T/C [5] is reported as 89 % of control.
In the case of `Cc1cc(O)cc(=O)o1`, the T/C (dose: 100.0 mg/kg/injection, schedule: Q01DX009 (ip), vehicle: Klucel (hydroxypropylcellulose) (HPC)) is reported as 97 % of control and 89 % of control, the T/C (dose: 100.0 mg/kg/injection, schedule: Q04DX003 (ip), vehicle: Klucel (hydroxypropylcellulose) (HPC)) is reported as 101 % of control and 86 % of control and the T/C (dose: 200.0 mg/kg/injection, schedule: Q01DX009 (ip), vehicle: Klucel (hydroxypropylcellulose) (HPC)) is reported as 95 % of control and 100 % of control. For the same compound, the T/C (dose: 200.0 mg/kg/injection, schedule: Q04DX003 (ip), vehicle: Klucel (hydroxypropylcellulose) (HPC)) was 101 % of control and 103 % of control, the T/C (dose: 400.0 mg/kg/injection, schedule: Q01DX009 (ip), vehicle: Klucel (hydroxypropylcellulose) (HPC)) was 94 % of control and 100 % of control and the T/C (dose: 400.0 mg/kg/injection, schedule: Q04DX003 (ip), vehicle: Klucel (hydroxypropylcellulose) (HPC)) was 92 % of control and 102 % of control.
`COc1cc(N)c2ncccc2c1Cl` was tested, and the T/C [10] was 104 % of control, the T/C [11] was 104 % of control and the T/C [12] was 101 % of control.
In the case of `O=C1OCCN1NCc1ccc([N+](=O)[O-])o1`, the T/C [10] is reported as 92 % of control, the T/C [11] is reported as 103 % of control and the T/C [12] is reported as 101 % of control.
With `CN(C)CCCNC1=C(Cl)C(=O)C(NCCCN(C)C)=C(Cl)C1=O` the T/C [14] was 89 % of control.
In the case of `Cc1cc(C)c(S(=O)(=O)Cc2cc(Cl)cc(Cl)c2O)c(C)c1`, the T/C [7] is reported as 86 % of control, the T/C (dose: 50.0 mg/kg/injection, schedule: Q04DX003 (ip), vehicle: acetone) is reported as 93 % of control and the T/C [10] is reported as 88 % of control. For the same compound, the T/C [8] was 105 % of control, the T/C [14] was 89 % of control and the T/C [11] was 87 % of control. The T/C [13] was 91 % of control and the T/C (dose: 200.0 mg/kg/injection, schedule: Q04DX003 (ip), vehicle: acetone) was 91 % of control.
In the case of `CCN(CC)CCCC(C)NC(=O)c1ccc(Cl)nc1` (configuration not stated), the T/C (dose: 50.0 mg/kg/injection, schedule: Q01DX009 (ip), vehicle: saline with Tween-80) is reported as 105 % of control, the T/C [1] is reported as 103 % of control and the T/C [3] is reported as 95 % of control.
For `CC(=O)c1ccccc1OC(=S)N(C)C`, the T/C [2] was 87 % of control and the T/C [4] was 95 % of control.
With `C=CCOCC(O)C[As](=O)(O)c1ccc(OC)cc1` (configuration not stated) the T/C (dose: 25.0 mg/kg/injection, schedule: Q04DX003 (ip), vehicle: saline with Tween-80) was 87 % of control.
